Reference: PubChem BioAssay (NCI)
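Cultured in 96-well plates, cells were exposed to test compound for 48 hours across five concentrations. GI50 marks 50% less growth. Definition used: TGI = concentration required for complete inhibition of growth.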

Key:
Assay in all cases: inhibition of tumour cell growth, NCI panel, 48 h
MDA-MB-435 = tested on: MDA-MB-435
786-0 renal = tested on: 786-0 renal
UACC-62 melanoma = tested on: UACC-62 melanoma
MDA-MB-231 breast = tested on: MDA-MB-231 breast
HOP-62 NSCLC = tested on: HOP-62 NSCLC
SF-539 CNS = tested on: SF-539 CNS
PC-3 prostate = tested on: PC-3 prostate
MALME-3M melanoma = tested on: MALME-3M melanoma
NCI-H23 lung = tested on: NCI-H23 lung
SK-MEL-2 melanoma = tested on: SK-MEL-2 melanoma
HOP-92 NSCLC = tested on: HOP-92 NSCLC
CAKI-1 renal = tested on: CAKI-1 renal
SW-620 colon = tested on: SW-620 colon
SF-268 CNS = tested on: SF-268 CNS
MCF7 breast = tested on: MCF7 breast
NCI-H522 lung = tested on: NCI-H522 lung
HCC-2998 colon = tested on: HCC-2998 colon
BT-549 breast = tested on: BT-549 breast
HL-60(TB) leukemia = tested on: HL-60(TB) leukemia
OVCAR-5 ovarian = tested on: OVCAR-5 ovarian
ACHN renal = tested on: ACHN renal
RXF 393 renal = tested on: RXF 393 renal
HCT-15 colon = tested on: HCT-15 colon
CCRF-CEM leukemia = tested on: CCRF-CEM leukemia
SK-OV-3 ovarian = tested on: SK-OV-3 ovarian
RPMI-8226 leukemia = tested on: RPMI-8226 leukemia
A498 renal = tested on: A498 renal
NCI-H226 lung = tested on: NCI-H226 lung
SN12C renal = tested on: SN12C renal
KM12 colon = tested on: KM12 colon
IGROV1 ovarian = tested on: IGROV1 ovarian
HCT-116 colon = tested on: HCT-116 colon
SF-295 CNS = tested on: SF-295 CNS
MOLT-4 leukemia = tested on: MOLT-4 leukemia
UACC-257 melanoma = tested on: UACC-257 melanoma
COLO 205 colon = tested on: COLO 205 colon
NCI-H460 lung = tested on: NCI-H460 lung
LOX IMVI melanoma = tested on: LOX IMVI melanoma
SNB-75 CNS = tested on: SNB-75 CNS
SR leukemia = tested on: SR leukemia
SK-MEL-28 melanoma = tested on: SK-MEL-28 melanoma
SNB-19 CNS = tested on: SNB-19 CNS
T-47D breast = tested on: T-47D breast
OVCAR-8 ovarian = tested on: OVCAR-8 ovarian
DU-145 prostate = tested on: DU-145 prostate
A549 NSCLC = tested on: A549 NSCLC
UO-31 renal = tested on: UO-31 renal
EKVX NSCLC = tested on: EKVX NSCLC
HS 578T breast = tested on: HS 578T breast
TK-10 renal = tested on: TK-10 renal
SK-MEL-5 melanoma = tested on: SK-MEL-5 melanoma
K-562 leukemia = tested on: K-562 leukemia
OVCAR-3 ovarian = tested on: OVCAR-3 ovarian
HT29 colon = tested on: HT29 colon
M14 melanoma = tested on: M14 melanoma
U251 CNS = tested on: U251 CNS
OVCAR-4 ovarian = tested on: OVCAR-4 ovarian

## CCOC(=O)c1ccc2[nH]c(O)c(C(=Nc3ccc(N(C)C(=O)CN4CCN(C)CC4)cc3)c3ccccc3)c2c1
MDA-MB-435
  GI50: 0.667 µM
  TGI: 2 µM
786-0 renal
  GI50: 0.213 µM
  TGI: 1.78 µM
UACC-62 melanoma
  GI50: 1.41 µM
  TGI: 3.09 µM
MDA-MB-231 breast
  GI50: 0.222 µM
  TGI: 1.54 µM
HOP-62 NSCLC
  GI50: 0.428 µM
  TGI: 2.18 µM
SF-539 CNS
  GI50: 0.247 µM
  TGI: 0.979 µM
PC-3 prostate
  GI50: 0.467 µM
  TGI: 2.37 µM
MALME-3M melanoma
  GI50: 0.454 µM
  TGI: 1.84 µM
NCI-H23 lung
  GI50: 0.467 µM
  TGI: 2.23 µM
SK-MEL-2 melanoma
  GI50: 0.78 µM
  TGI: 2.57 µM
HOP-92 NSCLC
  GI50: 0.781 µM
  TGI: 2.78 µM
CAKI-1 renal
  GI50: 0.103 µM
  TGI: 1.16 µM
SW-620 colon
  GI50: 0.346 µM
  TGI: 1.62 µM
SF-268 CNS
  GI50: 0.413 µM
  TGI: 2.03 µM
MCF7 breast
  GI50: 0.418 µM
  TGI: 1.99 µM
NCI-H522 lung
  GI50: 1.12 µM
  TGI: 3.34 µM
HCC-2998 colon
  GI50: 0.655 µM
  TGI: 2.06 µM
BT-549 breast
  GI50: 1.04 µM
  TGI: 2.32 µM
HL-60(TB) leukemia
  GI50: 0.356 µM
  TGI: 1.15 µM
OVCAR-5 ovarian
  GI50: 1.35 µM
  TGI: 3.44 µM
ACHN renal
  GI50: 0.356 µM
  TGI: 1.53 µM
RXF 393 renal
  GI50: 0.189 µM
  TGI: 0.698 µM
HCT-15 colon
  GI50: 0.402 µM
  TGI: 1.81 µM
CCRF-CEM leukemia
  GI50: 0.416 µM
  TGI: 8.65 µM
SK-OV-3 ovarian
  GI50: 0.206 µM
  TGI: 1.23 µM
RPMI-8226 leukemia
  GI50: 0.598 µM
  TGI: 3.55 µM
A498 renal
  GI50: 0.162 µM
  TGI: 1.06 µM
NCI-H226 lung
  GI50: 0.596 µM
  TGI: 2.4 µM
SN12C renal
  GI50: 0.144 µM
  TGI: 1.54 µM
KM12 colon
  GI50: 0.0172 µM
  TGI: 1.51 µM
IGROV1 ovarian
  GI50: 0.111 µM
  TGI: 1.24 µM
HCT-116 colon
  GI50: 0.172 µM
  TGI: 1.26 µM
SF-295 CNS
  GI50: 0.894 µM
  TGI: 2.2 µM
MOLT-4 leukemia
  GI50: 0.254 µM
  TGI: 2 µM
UACC-257 melanoma
  GI50: 1.38 µM
  TGI: 3.17 µM
COLO 205 colon
  GI50: 0.275 µM
  TGI: 1.47 µM
NCI-H460 lung
  GI50: 0.81 µM
  TGI: 2.45 µM
LOX IMVI melanoma
  GI50: 0.3 µM
  TGI: 1.41 µM
SNB-75 CNS
  GI50: 0.178 µM
  TGI: 2.06 µM
SR leukemia
  GI50: 0.121 µM
  TGI: 0.901 µM
SK-MEL-28 melanoma
  GI50: 1.11 µM
  TGI: 2.48 µM
SNB-19 CNS
  GI50: 0.743 µM
  TGI: 2.1 µM
T-47D breast
  GI50: 0.979 µM
  TGI: 3.31 µM
OVCAR-8 ovarian
  GI50: 0.514 µM
  TGI: 2.89 µM
DU-145 prostate
  GI50: 0.49 µM
  TGI: 2.1 µM
A549 NSCLC
  GI50: 0.416 µM
  TGI: 2.73 µM
UO-31 renal
  GI50: 0.323 µM
  TGI: 1.56 µM
EKVX NSCLC
  GI50: 0.955 µM
  TGI: 2.74 µM
HS 578T breast
  GI50: 0.0644 µM
  TGI: 1.01 µM
TK-10 renal
  GI50: 0.54 µM
  TGI: 3.33 µM
SK-MEL-5 melanoma
  GI50: 0.426 µM
  TGI: 1.58 µM
K-562 leukemia
  GI50: 0.0625 µM
  TGI: 2.04 µM
OVCAR-3 ovarian
  GI50: 0.774 µM
  TGI: 2.3 µM
HT29 colon
  GI50: 0.185 µM
  TGI: 8.87 µM
M14 melanoma
  GI50: 0.339 µM
  TGI: 1.53 µM

## O=c1cc(-c2ccccc2)[nH]c2ccc(N3CCCCC3)cc12
786-0 renal
  TGI: 43.1 µM
UACC-62 melanoma
  TGI: > 100 µM
MDA-MB-231 breast
  TGI: > 100 µM
HOP-62 NSCLC
  TGI: 47.4 µM
U251 CNS
  TGI: > 45.9 µM
SF-539 CNS
  TGI: 0.549 µM
PC-3 prostate
  TGI: > 100 µM
MALME-3M melanoma
  TGI: > 100 µM
OVCAR-4 ovarian
  TGI: > 100 µM
NCI-H23 lung
  TGI: 6.86 µM
SK-MEL-2 melanoma
  TGI: > 100 µM
HOP-92 NSCLC
  TGI: 53.6 µM
CAKI-1 renal
  TGI: > 100 µM
SW-620 colon
  TGI: > 100 µM
SF-268 CNS
  TGI: > 53.2 µM
MCF7 breast
  TGI: > 67.9 µM
NCI-H522 lung
  TGI: > 100 µM
HCC-2998 colon
  TGI: > 22.5 µM
BT-549 breast
  TGI: > 100 µM
HL-60(TB) leukemia
  TGI: < 0.028 µM
OVCAR-5 ovarian
  TGI: > 100 µM
ACHN renal
  TGI: > 100 µM
HCT-15 colon
  TGI: > 100 µM
SK-OV-3 ovarian
  TGI: > 59.7 µM
RPMI-8226 leukemia
  TGI: > 100 µM
NCI-H226 lung
  TGI: 0.0706 µM
SN12C renal
  TGI: > 100 µM
KM12 colon
  TGI: 0.0909 µM
IGROV1 ovarian
  TGI: > 100 µM
SF-295 CNS
  TGI: 0.0474 µM
MOLT-4 leukemia
  TGI: > 100 µM
UACC-257 melanoma
  TGI: > 100 µM
COLO 205 colon
  TGI: > 100 µM
NCI-H460 lung
  TGI: > 100 µM
LOX IMVI melanoma
  TGI: > 100 µM
SR leukemia
  TGI: > 100 µM
SK-MEL-28 melanoma
  TGI: > 100 µM
SNB-19 CNS
  TGI: > 100 µM
T-47D breast
  TGI: > 100 µM
OVCAR-8 ovarian
  TGI: > 44.9 µM
DU-145 prostate
  TGI: > 30.3 µM
EKVX NSCLC
  TGI: > 100 µM
HS 578T breast
  TGI: > 100 µM
TK-10 renal
  TGI: > 100 µM
SK-MEL-5 melanoma
  TGI: 4.2 µM
K-562 leukemia
  TGI: > 100 µM
OVCAR-3 ovarian
  TGI: 2.89 µM
M14 melanoma
  TGI: > 100 µM
